Results on 13 molecules are retold here after PubChem BioAssay (NCI).

Where “and” joins values, the source holds several entries; their conditions need not be identical. Equal values may be shown once.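 1) Cells in 96-well plates. 2) Compound, 48 h, 5 concentrations. 3) Linear interpolation between surrounding doses. 4) Unreached endpoint = highest concentration. Abbreviation: GI50, concentration required for 50% inhibition of growth. The concentration for full growth arrest is given as TGI.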 Bounds are passed on as bounds.

Among the test systems are SF-295 CNS; XF 498 CNS; UACC-62 melanoma; DU-145 prostate; MALME-3M melanoma; NCI-H460 lung; KM20L2 colon; DLD-1 colon; HS 578T breast; DMS 273 small cell lung; NCI-H522 lung.
What all share (assay): NCI tumour cell line growth inhibition, 48 h

Turning to `CC(=O)O[C@H]1C(=O)[C@@]2(C)C([C@H](OC(=O)c3ccccc3)[C@]3(O)C[C@H](OC(=O)[C@H](O)[C@@H](NC(=O)c4ccc(Cl)cc4)c4ccccc4)C(C)=C1C3(C)C)C1(OC(C)=O)CO[C@@H]1C[C@@H]2O` (stereo not given in full), the values for the GI50 in the experiment on SF-295 CNS and in the experiment with MALME-3M melanoma were 0.177 µM and 0.0599 µM, respectively. The TGI in the experiment on XF 498 CNS was 3.73 µM; in the experiment with UACC-62 melanoma it was 0.178 µM; in the experiment on DU-145 prostate, 0.452 µM; in the experiment with MALME-3M melanoma, 25 µM and 24.1 µM; with NCI-H460 lung, 25 µM and > 100 µM; in the experiment with KM20L2 colon, more than 100 µM. Further, the TGI in the experiment on DLD-1 colon was more than 100 µM; in the experiment with HS 578T breast it was 0.185 µM.
Consider `Cc1cccc(NC(=O)CSc2nnc(-c3ccc(N=Cc4ccc(Cl)cc4)cc3)o2)c1`, for which the TGI in the experiment with SF-295 CNS, with XF 498 CNS, in the experiment on UACC-62 melanoma, in the experiment on MALME-3M melanoma, with NCI-H460 lung and in the experiment with DMS 273 small cell lung was more than 100 µM each time. Besides, the TGI in the experiment on KM20L2 colon and in the experiment with NCI-H522 lung was more than 100 µM in each case.
On to `COc1ccc(S(=O)(=O)NNS(C)(=O)=O)cc1OC`, for which the TGI with SF-295 CNS, with XF 498 CNS, in the experiment on UACC-62 melanoma, in the experiment with MALME-3M melanoma, in the experiment on NCI-H460 lung and in the experiment on DMS 273 small cell lung was more than 100 µM in each case. The TGI in the experiment with KM20L2 colon, with DLD-1 colon and in the experiment with NCI-H522 lung was more than 100 µM in each case.
Regarding `CCOc1ccc(N=Nc2c(-c3ccccc3)nn(C(=O)CC(=O)Nc3ccccc3Cl)c2-c2ccccc2)cc1`, the TGI in the experiment on SF-295 CNS, with XF 498 CNS, in the experiment on UACC-62 melanoma, with MALME-3M melanoma, with NCI-H460 lung and in the experiment with DMS 273 small cell lung was more than 100 µM in each case. The TGI in the experiment with KM20L2 colon, in the experiment with DLD-1 colon and in the experiment on NCI-H522 lung was more than 100 µM in each case.
`Cc1ccccc1NC(=O)C(=O)CC(=O)c1sc(-n2nc(-c3ccccc3)cc2-c2ccccc2)nc1C`: the TGI in the experiment on SF-295 CNS, with UACC-62 melanoma, in the experiment with MALME-3M melanoma, in the experiment with NCI-H460 lung, in the experiment on DMS 273 small cell lung and in the experiment on KM20L2 colon was more than 100 µM throughout. Further, the TGI in the experiment with DLD-1 colon and in the experiment with NCI-H522 lung was more than 100 µM in each case.
On to `CN(C)CC(=O)N1CCc2c([nH]c3ccccc23)C1c1cccnc1` (stereo not given), for which the TGI in the experiment with XF 498 CNS is more than 100 µM; in the experiment on UACC-62 melanoma, more than 100 µM; in the experiment on DU-145 prostate it was more than 100 µM; in the experiment with MALME-3M melanoma, more than 100 µM; in the experiment with NCI-H460 lung, more than 100 µM; in the experiment with DMS 273 small cell lung, 1.37 µM. In addition, the TGI in the experiment with KM20L2 colon, with DLD-1 colon, in the experiment with NCI-H522 lung and in the experiment on HS 578T breast was more than 100 µM in each case. The GI50 was more than 100 µM in the experiment with DU-145 prostate, more than 100 µM in the experiment on MALME-3M melanoma and 94.1 µM in the experiment on HS 578T breast.
As for `O=C(Nc1c(Cl)cc([N+](=O)[O-])cc1Cl)C(=O)C(C(=O)c1ccncc1)C1OC(=O)c2ccccc21` (stereo not given), the TGI with SF-295 CNS, in the experiment on XF 498 CNS, with UACC-62 melanoma, in the experiment with MALME-3M melanoma, in the experiment with NCI-H460 lung and in the experiment with DMS 273 small cell lung was more than 100 µM throughout. In addition, the TGI with KM20L2 colon, with DLD-1 colon and with NCI-H522 lung was more than 100 µM each time.
As to `CC1(O)CC2C(CC1SCc1ccccc1)C2(C)C` (stereo not given), the TGI in the experiment on SF-295 CNS is 43.4 µM; with XF 498 CNS, 32.9 µM and 37.4 µM; with UACC-62 melanoma, 92.3 µM and 33.4 µM; in the experiment on MALME-3M melanoma, 44.1 µM and 30.4 µM; in the experiment with NCI-H460 lung it was 57.8 µM and 27.7 µM; in the experiment with DMS 273 small cell lung it was 33.1 µM and 29.2 µM. Also, the TGI in the experiment with KM20L2 colon is 59.4 µM and 35.9 µM; with DLD-1 colon it was > 100 µM and 30.2 µM; in the experiment with NCI-H522 lung it was 29.1 µM and 25.2 µM. Further, the GI50 with DLD-1 colon is 42.4 µM and 16.6 µM.
In the case of `NC(=O)N1N=C2c3ccccc3OC[C@H]2[C@@H]1c1ccccc1`, the TGI was more than 35.7 µM with SF-295 CNS; more than 100 µM in the experiment with XF 498 CNS; 19.9 µM with UACC-62 melanoma; more than 100 µM in the experiment on MALME-3M melanoma; 60.2 µM in the experiment on NCI-H460 lung; more than 100 µM with DMS 273 small cell lung. For the same molecule, the TGI with KM20L2 colon was 49.8 µM; with DLD-1 colon, more than 100 µM; in the experiment on NCI-H522 lung, 12.7 µM.
Take `COC(=O)C1C(=O)NC2(C)CC1c1ccccc1O2` (stereo not given): the TGI in the experiment on SF-295 CNS, in the experiment with XF 498 CNS, with UACC-62 melanoma, with MALME-3M melanoma, with NCI-H460 lung and with DMS 273 small cell lung was more than 100 µM throughout. The TGI in the experiment with DLD-1 colon and in the experiment with NCI-H522 lung was more than 100 µM throughout.
In the case of `O=C(CC/C(CC(=O)c1ccc(Cl)cc1)=N\O)Nc1cccc(Cl)c1`, the TGI in the experiment with SF-295 CNS, in the experiment on XF 498 CNS, with UACC-62 melanoma, in the experiment on MALME-3M melanoma, in the experiment on NCI-H460 lung and in the experiment on DMS 273 small cell lung was more than 100 µM in each case. In addition, the TGI with KM20L2 colon and with DLD-1 colon was more than 100 µM throughout.
With `Cc1ccc(-n2cc(/C(N)=N/O)c3ccccc3c2=O)cc1`, the TGI in the experiment with SF-295 CNS, with XF 498 CNS, in the experiment on UACC-62 melanoma, in the experiment with MALME-3M melanoma, in the experiment on NCI-H460 lung and in the experiment with DMS 273 small cell lung was more than 100 µM throughout. For the same molecule, the TGI in the experiment on KM20L2 colon and in the experiment with NCI-H522 lung was more than 100 µM throughout.
Turning to `Cc1nc(Nc2ccc(Cl)c(Cl)c2)sc1C(/C=C/c1ccc2c(c1)OCO2)=N/Nc1ccc([N+](=O)[O-])cc1[N+](=O)[O-]`, the TGI in the experiment on SF-295 CNS is more than 100 µM; in the experiment on XF 498 CNS, more than 48.8 µM; in the experiment with UACC-62 melanoma, more than 88 µM; with DU-145 prostate, more than 100 µM; in the experiment with MALME-3M melanoma, more than 100 µM; in the experiment with NCI-H460 lung, more than 100 µM. The TGI in the experiment with DMS 273 small cell lung, in the experiment with KM20L2 colon, with DLD-1 colon, with NCI-H522 lung and in the experiment on HS 578T breast was more than 100 µM each time.
